Entries after “also recorded” stand apart in the source; their conditions may differ.

Three compounds from patent US20050101002A1, “Process for production of low temperature active alkaline protease from a deep-sea fungus” (COUNCIL OF SCIENTIFIC & INDUSTRIAL RESEARCH, priority 2003, published 2005) can be followed below.

For the experiment, the system named is protease of Aspergillus sp. MTCC 5102. In words: Protease assayed in the presence of EDTA, PMSF, HgCl2. It is filed as biochemical. The following applies: for Inhibition of protease activity (in words): assayed in the presence of the additive. As for the experimental part: The said fungus Aspergillus sp. MTCC 5102 is grown in malt extract broth containing 2% malt extract and 0.3% peptone in sea water. The 7-day old fungal mat obtained this way was macerated and used as a starter inoculum for the experimental cultures containing glucose or cellulose at a concentration of 1% (w/v). Casein, spray-dried dairy whitener, soybean meal, molasses or corn steep liquor at a 1% concentration was used as the organic nitrogen source. The Czapek Dox broth to which the above mentioned nitrogen-containing substrates were added independently, contained 10 g glucose, 2 g NaNO3, 1 g K2HPO4, 0.5 g MgSO4, 0.5 g KCl and 0.01 g Fe2SO4 L^−1 medium. The pH of the medium was adjusted to 7.0 or 9.0. This medium was prepared with distilled water or sea water. The cultures were grown as shallow static cultures for 4-6 days. The cell-free clear supernatant obtained after filtration through GF/F filters followed by 0.22 μm Nuclepore filters was used as the source of alkaline protease. Protease activity was measured using Azocasein (Sigma Chemicals, Mo, USA) at 2% concentration. Azocasien Units (ACU) released at various temperatures and pH combinations were measured at 440 nm and expressed as an increase in absorbance by 0.001 in 1 minute (Alfredsson, G. A, Gudmundsson H. M., Xiang J. Y., Kristjansson M. M. 1995, Subtilisin-like serine proteases from psychrophilic marine bacteria. J. Mar. Biotech. 3: 71-72). Substrate and enzyme blanks were maintained for all the assays. All the assays were run in triplicates.
The said fungus Aspergillus sp. MTCC 5102 was grown as described in Example 1 and the clear supernatant was used for testing whether the protease enzyme was serine or metalloprotease. For this purpose the enzyme was assayed in the presence of 50 mM […] (EDTA), 2 mM phenylmethylsulfonyl fluoride (PMSF) and 200 μM mercuric chloride (HgCl2).

Take `O=C(O)CN(CCN(CC(=O)O)CC(=O)O)CC(=O)O` [EDTA, ethylenediamine tetraacetic acid]: the “Inhibition of protease activity (in words)” value (shortened to “Inhibition … (in words)”) is recorded as “not inhibited; also recorded: no inhibition of activity”. In addition, under “50 mM”, the “% inhibition” value was found to be 6% and the “Residual specific activity (%)” value came to 94%.
Turning to `[Cl][Hg][Cl]` [HgCl2, mercuric chloride], the “Inhibition … (in words)” value was “not inhibited”. Also, under “200 μM”, the “% inhibition” value is listed as 14% and the “Residual specific activity (%)” value was found to be 86%.
As to `O=S(=O)(F)Cc1ccccc1` [PMSF, phenylmethylsulfonyl fluoride], the “Inhibition … (in words)” value was “totally inhibited; also recorded: inhibition of the activity”. In addition, for the setting “2 mM”, the “% inhibition” value amounted to 100% and the “Residual specific activity (%)” value was determined as 0%.

As a reminder, the % inhibition is the share of the control response that was lost under treatment.
